Experimental data from patent publication US20220054496A1, “MODULATION OF TRF1 FOR BRAIN CANCER TREATMENT” (Fundación Del Sector Público Estatal Centro Nacional De …, priority 2018, published 2022).
“Also recorded” adds a separate entry of the source.

Experiments:
[1] = test system: TRF1; assay: TRF1 nuclear immunofluorescence (TRF1 foci) in U251 cells; type: cell-based, human; settings: 10 μM, 24 h or 48 hr
Experimental: For immunofluorescence analyses, cells were plated in a proper density in cell culture μCLEAR plates (Greiner) and fixed in 4% formaldehyde in PBS. Cells were permeabilized with 0.25% Triton in PBS and blocked with 5% BSA in PBS. Tissue sections were fixed in 10% buffered formalin (Sigma) and embedded in paraffin. After deparaffinization and citrate antigen retrieval, sections were permeabilized with 0.5% Triton in PBS and blocked with 1% BSA and 10% Australian FBS ([…]) in PBS. The antibodies were applied overnight in antibody diluents with background reducing agents (Invitrogen).
Immunofluorescence images were obtained using a confocal ultraspectral microscope (Leica TCS-SP5) or the Opera High Content Screening (HCS) system (Perkin Elmer). Quantifications were performed with Definiens software.
(§1) For in vitro studies, ETP-47228 ETP-47037 and ETP-50946 were dissolved in DMSO at a final concentration of 10 or 5 mM. Cells were treated at a concentration of 10 μM for 24 h or 48 hr.
(§2) To address whether these small molecules could represent a new therapeutic strategy for the treatment of GBM, the present inventors first tested the ability of the three independent TRF1 inhibitory molecules (ETP-47228, ETP-47037 and ETP-50946) to downregulate TRF1 protein levels in the U251 human GBM cell line.

[2] = test system: TRF1; assay: Western blot of total TRF1 protein in U251 cells; type: cell-based, human; settings: 10 μM, 24 h or 48 hr
Experimental: Nuclear protein extracts were obtained using Nuclear Cytosolic Fractionation Kit (Biovision) and protein concentration was determined using the Bio-Rad DC Protein Assay (Bio-Rad). Up to 15 μg of protein per extract were separated in SDS-polyacrylamide gels by electrophoresis. After protein transfer onto nitrocellulose membrane (Whatman), the membranes were incubated with the indicated antibodies. Antibody binding was detected after incubation with a secondary antibody coupled to horseradish peroxidase using chemiluminescence with ECL detection KIT (GE Healthcare)
Quantifications: Protein-band intensities were measured with ImageJ software and normalized against the loading control.
as §1, §2

[3] = test system: U251 cells; assay: Neurosphere formation assay in U251 cells; type: cell-based, human; settings: U251 in NSC media; seven days; vs DMSO
Experimental: (§3) Spheres were dissociated into single cells and seeded at a density of 50, 100, 200 and 400 cells/well in a 96 well plate. Neurosphere number was assessed after 7 days. Pictures were taken using Nikon Eclipse Ti-U microscope and neurosphere diameter was measured using NIS Elements BR software.
Finally, the present inventors checked if the three chemical compounds had the ability to reduce sternness in these cells. They cultured U251 cells with NSC media in order to obtain a suspension culture enriched in stem cells. The inventors performed a sphere formation assay with these cells treated with ETP-47228, ETP-47037 and ETP-50946 or DMSO for seven days. […] Of note, all these effects recapitulated what the present inventors observed with Trf1 genetic downregulation (See 2.2).

[4] = test system: h676 GSCs; assay: Sphere formation assay in patient-derived h676 GSCs; type: cell-based, human; settings: vs untreated controls
Experimental: (§4) FIG. 48. […] (A) Dose-response curves of the h676 GSCs treated 7 days with the indicated compounds. (B) Dose-response curves of the h543 GSCs treated 7 days with the indicated compounds. Data are represented as mean±SD.
as §3
(§5) Given the promising results the present inventors obtained with the TRF1 chemical modulators in the U251 GBM cell line, the present inventors next set to address the effects of these compounds in two independent patient-derived primary GSCs (h543 and h676) cultures.
(§6) Next, the present inventors set to address whether the different compounds were able to block sphere formation in the h676 and h543 GSCs.

[5] = test system: h543 GSCs; assay: Sphere formation assay in patient-derived h543 GSCs; type: cell-based, human; settings: vs untreated controls
Experimental: as §4, §3, §5, §6

[6] = test system: h676 GSCs xenografts; assay: Subcutaneous xenograft of patient-derived h676 GSCs in nude mice; type: in vivo
Experimental: (§7) h676 and h543 patient-derived GSCs were dissociated using a 200 μl pipet and resuspended in NeuroCult medium and matrigel in a 1:1 ratio in a concentration of 1000 cell/μl. Nude mice (athymic Nude-Foxn1^nu/nu from Harlan) were injected subcutaneously with 100 μl of the cell preparation. ETP-47037 (or vehicle) was orally administrated at a concentration of 75 mg/kg 5 days per week (see also section 8), starting one week after cell injection. The vehicle consisted in 10% N-methyl-2-pyrrolidone (NMP, Sigma Aldrich) and 90% poly ethylene glycol (PEG, Sigma Aldrich). Mice were weighted and tumors were measured every 2-4 days. Tumor area was determined by the following equation: A=π*(a/2)*(b/2), were a and b are tumor length and width respectively.
(§8) For oral administration, ETP-47037 was dissolved in 10% N-methyl-2-pyrrolidone (NMP, Sigma Aldrich) and 90% polyethylene glycol (PEG, Sigma Aldrich) at a concentration of 75 mg/kg.
Next, the present inventors set to address whether TRF1 chemical inhibition was able to block tumor growth in vivo. […] Thus, the two independent primary GSCs (h676 and h543) were injected subcutaneously into nude mice. One week after GSC injection, mice received oral administration of the vehicle (NMP 10%, PEG 90%) as placebo or the ETP-47037 TRF1 inhibitor 5 days/week, every week until human endpoint, and tumors were continuously followed-up by caliper measurements (FIG. 42A).

[7] = test system: h543 GSCs xenografts; assay: Subcutaneous xenograft of patient-derived h543 GSCs in nude mice; type: in vivo; settings: oral 75 mg/kg 5 days/week, vs vehicle
Experimental: as §7, §8
(§9) Next, the present inventors set to address whether TRF1 chemical inhibition was able to block tumor growth in vivo. […] Thus, the two independent primary GSCs (h676 and h543) were injected subcutaneously into nude mice. […]

[8] = Crossing of the brain blood barrier
[9] = Sickness, morbidity and pathologies of xenograft mice after long-term treatment; type: in vivo
Experimental: as §7
Histopathological analysis was performed in paraffin embedded tissue sections stained with hematoxylin and eosin (H&E), with the assistance of the CNIO Histopathology Unit and Juana María Flores from the Universidad Complutense de Madrid (UCM).
as §9

[10] = test system: K-Ras^G12V-induced lung tumors; settings: p53-deficient background; cited from earlier work
[11] = GSC-derived xenografts, vs vehicle

In the case of CS(=O)(=O)N1CCN(Cc2cc3c(N4CCOCC4)nc(-c4cnc(N)nc4)cn3n2)CC1 [ETP-47037], the “TRF1 foci (immunofluorescence)” value [1] was “effectively reduced”, the “total TRF1 protein levels (western blot)” value [2] was “effectively reduced” and the diameter of neurospheres [3] was “strong reduction”. The number of neurospheres [3] was “strong reduction”, the diameter of spheres [4] was “significant drastic reduction” and the number of spheres [4] was “significant drastic reduction”. The diameter of spheres [5] was “significant drastic reduction”, the number of spheres [5] was “significant drastic reduction” and the “proliferation marker Ki67-positive cells in tumors” value [6, 11] was “reduces proliferation”. The “γH2AX DNA damage marker positive cells in tumors” value [6, 11] was “induces DNA damage”, the “tumor areas (caliper follow-up)” value ([6]; h676 xenograft, oral 75 mg/kg 5 days/week, vs vehicle) was “drastic reduction” and the “decrease of TRF1 protein levels in tumors (immunofluorescence)” value ([6]; h676 xenograft, vs placebo) was 80%. The tumor size post-mortem ([6]; h676 xenograft, vs placebo) was “striking decrease”, the tumor weight post-mortem ([6]; h676 xenograft, vs placebo) was “striking decrease” and the “histological analysis of the tumors” value ([6]; xenografts after treatment) was “decreased cellularity in the tumors, together with necrotic areas, apoptotic bodies, compacted chromatin and fragmented DNA”. The “tumor areas (caliper follow-up)” value [7] was “drastic reduction”, the “crossing the brain blood barrier” value [8] was “not crossing the brain blood barrier” and the “Mice pathologies after long-term treatment” value ([9]; one line per mouse (Mice 1-4)) was “Mice 3: dermatitis; also recorded: Mice 4: dermatitis; also recorded: Mice 2: dermatitis”. For the same molecule, the “signs of sickness or morbidity” value ([9]; treated cohorts compared to the placebo group) was “did not detect any signs of sickness or morbidity” and the “growth of already established lung adenocarcinomas” value [10] was “effectively impair the growth”.
